These results are taken from patent publication US10005721B2, “Dimethylbenzoic acid compounds” (Eli Lilly and Company, priority 2013, dated 2018).

Experiment [1] has as its target T1, human EP1 (Homo sapiens, UniProt P34995).
T1 construct: expressed in transfected cells
T1 sequence (P34995 1-402): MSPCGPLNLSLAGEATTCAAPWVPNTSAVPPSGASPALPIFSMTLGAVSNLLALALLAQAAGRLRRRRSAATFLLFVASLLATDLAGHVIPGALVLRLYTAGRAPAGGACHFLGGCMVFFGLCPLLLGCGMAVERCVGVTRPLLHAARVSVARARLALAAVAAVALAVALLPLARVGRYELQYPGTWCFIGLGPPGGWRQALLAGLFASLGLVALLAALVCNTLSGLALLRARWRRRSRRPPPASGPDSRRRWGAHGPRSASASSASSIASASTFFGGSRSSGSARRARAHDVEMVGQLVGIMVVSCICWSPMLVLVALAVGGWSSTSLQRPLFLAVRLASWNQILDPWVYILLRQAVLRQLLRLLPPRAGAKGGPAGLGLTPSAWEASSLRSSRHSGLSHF
Description: In vitro binding to human EP1 ([3H]-PGE2 displacement, membranes). The following applies: HEK293 membranes, geometric mean ± SD, read-out: hEP1, Ki. On the procedure:
(§1) hEP1 and hEP4 membranes are prepared from recombinant HEK293 cells stably expressing human EP1 (Genbank accession number AY275470) or EP4 (Genbank accession number AY429109) receptors. hEP2 and hEP3 membranes are prepared from HEK293 cells transiently transfected with EP2 (Genbank accession number AY275471) or EP3 (isoform VI: Genbank accession number AY429108) receptor plasmids. Frozen cell pellets are homogenized in homogenization buffer using a Teflon/glass homogenizer. Membrane protein is aliquoted and quick frozen on dry ice prior to storage at −80° C. Homogenization buffer contained 10 mM Tris-HCl, pH 7.4, 250 mM sucrose, 1 mM EDTA, 0.3 mM indomethacin and plus Complete™, with EDTA, obtained from Roche Molecular Biochemicals (Catalog Number 1 697 498).
(§2) Kd values for [^3H]-PGE2 binding to each receptor are determined by saturation binding studies or homologous competition. […] Non-specific binding is calculated by comparing binding in the presence and absence of 2 μM of PGE2. The membranes are harvested by filtration (TomTek harvester), washed 4 times with cold buffer (10 mM MES pH 6.0 with KOH, 10 mM MgCl2), dried in a 60° C. oven, and the radioactivity is quantified as counts per minute (CPM) using a TopCount detector. Percent specific binding is calculated as the percent of the binding in the absence of any inhibitor, corrected for binding in the presence of 2 uM of PGE2. […]

In experiment [2] the target is T2, human EP3 (isoform VI) (Homo sapiens, UniProt P43115).
T2 construct: expressed in transfected cells; host or cells: HEK293 (transient)
T2 sequence (P43115 1-374 isoform P43115-4): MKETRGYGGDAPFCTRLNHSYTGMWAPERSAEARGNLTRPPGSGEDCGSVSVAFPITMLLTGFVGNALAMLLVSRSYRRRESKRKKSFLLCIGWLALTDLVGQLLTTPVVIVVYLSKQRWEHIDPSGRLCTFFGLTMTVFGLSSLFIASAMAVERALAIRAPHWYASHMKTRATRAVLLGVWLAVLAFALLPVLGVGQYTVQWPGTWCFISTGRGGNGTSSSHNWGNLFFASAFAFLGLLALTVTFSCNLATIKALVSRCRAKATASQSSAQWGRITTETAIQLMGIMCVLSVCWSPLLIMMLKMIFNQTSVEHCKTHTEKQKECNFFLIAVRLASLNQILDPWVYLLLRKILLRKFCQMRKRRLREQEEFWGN
Description: In vitro binding to human EP3 ([3H]-PGE2 displacement, membranes). The following applies: HEK293 membranes, geometric mean ± SD, read-out: hEP3, Ki. On the procedure: as §1, §2

For experiment [3], the target named is T3, human EP4 (Homo sapiens, UniProt P35408).
T3 construct: expressed in transfected cells
T3 sequence (P35408 whole entry): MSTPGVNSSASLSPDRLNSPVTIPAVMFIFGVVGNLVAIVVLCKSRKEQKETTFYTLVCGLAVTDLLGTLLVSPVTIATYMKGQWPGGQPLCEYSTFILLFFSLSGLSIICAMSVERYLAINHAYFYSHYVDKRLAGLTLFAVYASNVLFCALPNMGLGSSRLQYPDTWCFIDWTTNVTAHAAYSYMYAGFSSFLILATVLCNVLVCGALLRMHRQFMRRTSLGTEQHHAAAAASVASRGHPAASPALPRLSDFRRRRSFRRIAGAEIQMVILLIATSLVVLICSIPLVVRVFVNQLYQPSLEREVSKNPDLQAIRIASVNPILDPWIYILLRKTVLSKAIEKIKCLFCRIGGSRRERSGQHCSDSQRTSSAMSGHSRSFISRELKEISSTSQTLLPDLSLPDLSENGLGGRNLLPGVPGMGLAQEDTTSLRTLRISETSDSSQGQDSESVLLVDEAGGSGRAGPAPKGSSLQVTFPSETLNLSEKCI
Description: In vitro binding to human EP4 ([3H]-PGE2 displacement, membranes). The conditions noted are these: HEK293 membranes, geometric mean ± SD, read-out: hEP4, Ki. The method, then:
as §1, §2

Experiment [4] addresses T4, human EP2 (Homo sapiens, UniProt P43116).
T4 construct: expressed in transfected cells; host or cells: HEK293 (transient)
Description: In vitro binding to human EP2 ([3H]-PGE2 displacement, membranes). The conditions noted are these: HEK293 membranes, geometric mean ± SD, read-out: hEP2, Ki. The method, then: as §1, §2

For experiment [5], the target named is T3, human EP4. Description: In vitro human EP4 functional antagonist activity (PGE2-stimulated cAMP, HTRF, HEK293). The following applies: HEK293 cells expressing human EP4, EC80 of PGE2; geometric mean ± SD; read-out: IC50, inhibition of PGE2-stimulated cAMP production, human EP4. Type of experiment: cell-based. The method, then: Assays are conducted in recombinant HEK293 cells stably expressing human EP4 receptor. The cell lines are maintained by culturing in DMEM with high glucose and pyridoxine hydrochloride (Invitrogen) supplemented with 10% fetal bovine serum (FBS), 1 mM sodium pyruvate, 10 mM HEPES, […] and 2 mM L-glutamine. Confluent cultures are grown at 37° C. in an atmosphere containing 5% CO2. Cells are harvested using 2.5% Trypsin-EDTA, suspended in freeze media (FBS with 6% DMSO) at 10^7 cells/mL and aliquots are stored in liquid nitrogen. Just before assay, cells are thawed in DMEM, centrifuged, and resuspended in cAMP buffer.
The inhibition of PGE2-stimulated cAMP production by EP4 antagonists is measured using HTRF; (Cisbio catalog #62AM4PEB). […] The HTRF signal is detected using an EnVision® plate reader (Perkin-Elmer) to calculate the ratio of fluorescence at 665 nm to 620 nm. […] Results are expressed as the geometric mean±standard deviation; n=number of independent determinations. The standard deviation is calculated by the delta method, being Slog IC50×geometric mean×ln(10).

Experiment [6] has as its target T5, rat EP4 (Rattus norvegicus, UniProt P43114).
T5 construct: expressed in transfected cells
Description: In vitro rat EP4 functional antagonist activity (PGE2-stimulated cAMP, HTRF, HEK293). It is filed as cell-based. The conditions noted are these: HEK293 cells expressing rat EP4, PGE2 at EC80, cAMP HTRF; read-out: IC50 measured at rat EP4. On the procedure: Rat EP4 cDNA (Genebank Accession# NM 03276) is cloned into pcDNA 3.1 vector and subsequently transfected in HEK293 cells for receptor expression. Rat EP4 stable clone is scaled up and then frozen down as cell bank for future compounds screening. To test EP4 antagonist compounds in rEP4 cells, thaw the frozen cells and then resuspend cells in cAMP assay buffer. The cAMP buffer is made by HBSS without Phenol Red (Hyclone, SH30268) supplemented with 20 mM HEPES (Hyclone, SH30237), 0.1% BSA (Gibco, 15260) and 125 μM IBMX (Sigma, 15879). The cells are plated into 96-well half area flat-bottom polystyrene black plates (Costar 3694). Compounds are serial diluted with DMSO to give 10-point concentration response curves. Then diluted compounds are added into cAMP assay buffer which contains PGE2 (Cayman 14010, in a concentration predetermined to produce an EC80) at ratio of DMSO/buffer at 1/100. The cells are treated with compounds in the presence of PGE2 (EC80 concentration) for 30 minutes at room temperature. The cAMP levels generated from the cells are quantified by a cAMP HTRF assay kit (Cisbio 62AM4PEC). The plates are read on an EnVision plate reader using HTRF optimized protocol (PerkinElmer). IC50's are calculated using Graphpad Prism (v. 4) nonlinear regression, sigmoidal dose response curve fitting.
For orientation: In TR-FRET formats the signal depends on donor and acceptor labels being close together.

Experiment [7] deals with LPS-induced TNFα production in human whole blood. Description: In vitro antagonist activity in human whole blood (reversal of PGE2 inhibition of LPS-induced TNFα). Type of experiment: cell-based. The conditions noted are these: 10 μg/mL LPS, 10 nM PGE2, geometric mean ± SD, read-out: IC50, reversal of inhibitory effect of PGE2 on LPS-induced TNFα production. The source says: The inhibitory effects of PGE2 on LPS-induced TNFα production from macrophages/monocytes are believed to be mediated by EP4 receptors (See Murase, A., et al., Life Sciences, 82:226-232 (2008)). The ability of the compound of Example 1 to reverse the inhibitory effect of PGE2 on LPS-induced TNFα production in human whole blood is an indicia of functional activity.
Blood is collected from normal volunteer donors into sodium heparin vacutainer tubes. Donors have not taken NSAIDs or celecoxib within 48 hours or glucocorticoids within two weeks of the donation. All tubes/donor are pooled into 50 mL Falcon conical centrifuge tubes and 98 μL/well is distributed into 96-well tissue culture plates (Falcon 3072). […] TNFα levels in 2 μL plasma are quantified by a commercially available enzyme immunoassay (R&D Systems DY210), using Immulon 4 HBX plates (Thermo 3855) and 3,3′,5,5′ tetramethylbiphenyl-4,4′-diamine substrate (KPL 50-76-03). The plates are read at A450-A650 on a plate reader (Molecular Devices Versamax) using SOFTmaxPRO (v. 4.3.1) software. IC50s are calculated using Graphpad Prism (v. 4) nonlinear regression, sigmoidal dose response curve fitting. Results are expressed as the geometric mean±standard deviation; n=number of independent determinations. The standard deviation is calculated by the delta method, being SDlog IC50×geometric mean×ln(10).

Broadly, the Ki is a measure of affinity in units of concentration, obtained from inhibition or displacement. The term IC50 denotes the concentration that inhibits the measured activity by half.

T4 sequence (P43116 whole entry): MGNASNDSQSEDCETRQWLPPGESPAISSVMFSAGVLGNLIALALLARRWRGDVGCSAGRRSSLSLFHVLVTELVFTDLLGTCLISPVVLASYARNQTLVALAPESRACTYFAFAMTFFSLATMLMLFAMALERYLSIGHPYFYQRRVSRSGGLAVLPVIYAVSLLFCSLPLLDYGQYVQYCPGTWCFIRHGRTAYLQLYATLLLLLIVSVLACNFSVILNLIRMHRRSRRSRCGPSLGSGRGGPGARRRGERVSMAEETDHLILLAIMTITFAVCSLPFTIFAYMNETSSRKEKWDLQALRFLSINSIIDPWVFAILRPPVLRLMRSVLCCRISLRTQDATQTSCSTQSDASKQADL
T5 sequence (P43114 whole entry): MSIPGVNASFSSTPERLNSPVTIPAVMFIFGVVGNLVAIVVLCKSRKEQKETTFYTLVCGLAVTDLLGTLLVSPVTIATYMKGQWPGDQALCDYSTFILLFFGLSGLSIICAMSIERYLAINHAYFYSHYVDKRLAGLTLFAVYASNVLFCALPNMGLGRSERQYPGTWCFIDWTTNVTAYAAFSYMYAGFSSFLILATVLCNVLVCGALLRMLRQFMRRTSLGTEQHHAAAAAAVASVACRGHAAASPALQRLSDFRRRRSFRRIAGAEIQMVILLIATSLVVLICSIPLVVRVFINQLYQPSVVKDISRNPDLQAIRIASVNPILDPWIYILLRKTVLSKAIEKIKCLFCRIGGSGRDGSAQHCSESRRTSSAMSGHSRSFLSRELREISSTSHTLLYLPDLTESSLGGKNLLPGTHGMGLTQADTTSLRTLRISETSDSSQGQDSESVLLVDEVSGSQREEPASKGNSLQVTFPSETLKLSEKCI

Regarding `Cc1ccc(-c2cccc(CO)c2)nc1C(=O)Nc1c(C)ccc(C(=O)O)c1C` [Example 22, 3-[[6-[3-(Hydroxymethyl)phenyl]-3-methyl-pyridine-2-carbonyl]amino]-2,4-dimethyl-benzoic acid], the inhibition constant (Ki) in experiment [1] was over 17500 nM; in experiment [2], over 14000 nM; in experiment [3], 2.07 ± 1.31 nM; in experiment [4] it was over 18900 nM.
Take `Cc1ccc(-c2cccc(CO)c2)cc1C(=O)Nc1c(C)ccc(C(=O)O)c1C` [Example 1, 3-[[5-[3-(Hydroxymethyl)phenyl]-2-methyl-benzoyl]amino]-2,4-dimethyl-benzoic acid]: the inhibitory constant (Ki) in experiment [1] is over 18800 nM; in experiment [2] it was over 14800 nM; in experiment [3], 2.18 ± 1.74 nM; in experiment [4], 5850 ± 1010 nM. Moreover, the IC50 turned out to be 2.31 ± 2.02 nM in experiment [5], 1.51 nM in experiment [6] and 59.5 ± 37.8 nM in experiment [7].
